Data reported in patent EP3623369A1, “NOVEL MORPHOLINYL AMINE COMPOUNDS FOR THE TREATMENT OF AUTOIMMUNE DISEASE” (F. Hoffmann-La Roche AG, priority 2018, dated 2020).

Biological target: T1, hTLR7 (Homo sapiens, UniProt Q9NYK1)
T1 sequence (Q9NYK1 27-1049): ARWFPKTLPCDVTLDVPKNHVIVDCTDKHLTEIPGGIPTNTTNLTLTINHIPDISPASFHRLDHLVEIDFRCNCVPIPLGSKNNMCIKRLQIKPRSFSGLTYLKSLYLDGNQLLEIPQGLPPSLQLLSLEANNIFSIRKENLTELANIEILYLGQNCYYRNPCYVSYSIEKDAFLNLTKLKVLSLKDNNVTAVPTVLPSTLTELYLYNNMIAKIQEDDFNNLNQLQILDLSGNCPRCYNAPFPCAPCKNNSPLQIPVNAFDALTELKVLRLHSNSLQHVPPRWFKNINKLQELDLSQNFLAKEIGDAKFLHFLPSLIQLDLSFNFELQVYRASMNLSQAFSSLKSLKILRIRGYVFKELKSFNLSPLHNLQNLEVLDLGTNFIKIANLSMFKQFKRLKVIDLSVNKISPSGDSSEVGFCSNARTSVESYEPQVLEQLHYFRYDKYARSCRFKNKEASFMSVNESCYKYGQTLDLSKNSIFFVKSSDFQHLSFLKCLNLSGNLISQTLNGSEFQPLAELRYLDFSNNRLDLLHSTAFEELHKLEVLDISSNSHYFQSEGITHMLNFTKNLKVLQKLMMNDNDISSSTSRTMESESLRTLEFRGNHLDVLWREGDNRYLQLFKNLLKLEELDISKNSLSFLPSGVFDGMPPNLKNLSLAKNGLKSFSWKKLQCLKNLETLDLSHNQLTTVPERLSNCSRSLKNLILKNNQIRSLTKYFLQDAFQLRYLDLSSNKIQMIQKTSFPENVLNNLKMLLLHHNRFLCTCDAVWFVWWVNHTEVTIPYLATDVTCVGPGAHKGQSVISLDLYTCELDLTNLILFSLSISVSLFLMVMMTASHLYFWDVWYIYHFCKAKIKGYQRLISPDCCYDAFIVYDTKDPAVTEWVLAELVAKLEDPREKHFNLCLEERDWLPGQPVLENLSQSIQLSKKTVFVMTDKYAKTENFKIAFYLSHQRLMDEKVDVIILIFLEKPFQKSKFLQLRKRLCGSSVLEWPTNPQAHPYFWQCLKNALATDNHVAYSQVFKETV
Test: HEK293-Blue-hTLR-7 cells assay (SEAP reporter, R848 stimulation)
Format: cell-based
Details: HEK293-Blue-hTLR7 cells, R848, 20 hrs; 0.003 is the lowest tested concentration; read-out: HEK/hTLR7 IC50
Procedure: The following tests were carried out in order to determine the activity of the compounds of formula (I) or (Ia) in HEK293-Blue-hTLR-7/8/9 cells assay.
HEK293-Blue-hTLR-7 cells assay:
A stable HEK293-Blue-hTLR-7 cell line was purchased from InvivoGen (Cat.#: hkb-htlr7, San Diego, California, USA). These cells were originally designed for studying the stimulation of human TLR7 by monitoring the activation of NF-κB. A SEAP (secreted embryonic alkaline phosphatase) reporter gene was placed under the control of the IFN-β minimal promoter fused to five NF-κB and AP-1-binding sites. The SEAP was induced by activating NF-κB and AP-1 via stimulating HEK-Blue hTLR7 cells with TLR7 ligands. Therefore the reporter expression was declined by TLR7 antagonist under the stimulation of a ligand, such as R848 (Resiquimod), for incubation of 20 hrs. The cell culture supernatant SEAP reporter activity was determined using QUANTI-Blue™ kit (Cat.#: rep-qb1, Invivogen, San Diego, Ca, USA) at a wavelength of 640 nm, a detection medium that turns purple or blue in the presence of alkaline phosphatase.
HEK293-Blue-hTLR7 cells were incubated at a density of 250,000∼450,000 cells/mL in a volume of 170 µL in a 96-well plate in Dulbecco's Modified Eagle's medium (DMEM) containing 4.5 g/L glucose, 50 U/mL penicillin, […], […], 2 mM L-glutamine, 10% (v/v) heat-inactivated fetal bovine serum with addition of 20 µL test compound in a serial dilution in the presence of final DMSO at 1% and 10 µL of 20uM R848 in above DMEM, perform incubation under 37 °C in a CO2 incubator for 20 hrs. Then 20 µL of the supernatant from each well was incubated with 180 µL Quanti-blue substrate solution at 37 °C for 2 hrs and the absorbance was read at 620∼655 nm using a spectrophotometer. The signalling pathway that TLR7 activation leads to downstream NF-κB activation has been widely accepted, and therefore similar reporter assay was modified for evaluating TLR7 antagonist.

Compound | IC50 [nM]
C[C@@H]1CN(c2ccc3c(c2)CN(C[C@H]2CN(c4ccc(C#N)c5ncccc45)C[C@@H](C)O2)C3)CCN1 [Example 62, 5-[(2R,6S)-2-methyl-6-[[5-[(3R)-3-methylpiperazin-1-yl]isoindolin-2-yl]methyl]morpholin-4-yl] quinoline-8-carbonitrile] | 26
C[C@@H]1CN(c2ccc(C#N)c3nccnc23)C[C@H](CN2Cc3ccc(N4CCNCC4)cc3C2)O1 [Example 12, 8-[(2R,6S)-2-methyl-6-[(5-piperazin-1-ylisoindolin-2-yl)methyl]morpholin-4-yl]quinoxaline-5-carbonitrile] | < 3
C[C@@H]1CN(c2ccc(C#N)c3nccnc23)C[C@H](CN2Cc3ccc(N4CC5COCC(C4)N5)cc3C2)O1 [Example 49, 8-[(2R,6S)-2-methyl-6-[[5-(3-oxa-7,9-diazabicyclo[3.3.1]nonan-7-yl)isoindolin-2-yl]methyl]morpholin-4-yl]quinoxaline-5-carbonitrile] | 50
C[C@@H]1CN(c2ccc(C#N)c3ncccc23)C[C@H](CN2Cc3ccc(N4C5CCC4CNC5)cc3C2)O1 [Example 43, 5-[(2S,6R)-2-[[5-(3,8-diazabicyclo[3.2.1]octan-8-yl)isoindolin-2-yl]methyl]-6-methyl-morpholin-4-yl]quinoline-8-carbonitrile] | 60
C[C@@H]1CN(c2ccc(C#N)c3ncccc23)C[C@H](CNCc2ccc(N3CCNCC3)cc2)O1 [Example 86, 5-[(2R,6S)-2-methyl-6-[[(4-piperazin-1-ylphenyl)methylamino]methyl]morpholin-4-yl] quinoline-8-carbonitrile] | 15
C[C@@H]1CN(c2ccc(C#N)c3nccnc23)C[C@H](CNCc2ccc(N3CCNCC3)cc2)O1 [Example 84, 8-[(2R,6S)-2-methyl-6-[[(4-piperazin-1-ylphenyl)methylamino]methyl]morpholin-4-yl]quinoxaline-5-carbonitrile] | 12
CCOC(=O)C1CNCCN1c1ccc2c(c1)CN(C[C@H]1CN(c3ccc(C#N)c4ncccc34)C[C@@H](C)O1)C2 (stereo partly drawn) [Example 50, Ethyl 1-[2-[[(2S,6R)-4-(8-cyano-5-quinolyl)-6-methyl-morpholin-2-yl]methyl]isoindolin-5-yl] piperazine-2-carboxylate] | 85
C[C@@H]1CN(c2ccc(C#N)n3nccc23)C[C@H](CNCc2ccc(N3CCNCC3)cc2)O1 [Example 16, 4-[(2R,6S)-2-methyl-6-[[(4-piperazin-1-ylphenyl)methylamino]methyl]morpholin-4-yl]pyrazolo[1,5-a]pyridine-7-carbonitrile] | 104
C[C@@H]1CN(c2ccc(C#N)n3nccc23)C[C@H](CN2Cc3ccc(C4CCNC4)cc3C2)O1 (stereo partly drawn) [Example 9, 4-[(2R,6S)-2-methyl-6-[(5-pyrrolidin-3-ylisoindolin-2-yl)methyl]morpholin-4-yl]pyrazolo[1,5-a]pyridine-7-carbonitrile] | 195
C[C@@H]1CN(c2ccc(C#N)c3nccnc23)C[C@H](CN2Cc3ccc(N4C5CCC4CNC5)cc3C2)O1 [Example 41, 8-[(2S,6R)-2-[[5-(3,8-diazabicyclo[3.2.1]octan-8-yl)isoindolin-2-yl]methyl]-6-methyl-morpholin-4-yl]quinoxaline-5-carbonitrile] | 59
C[C@@H]1CN(c2ccc(C#N)c3ncccc23)C[C@H](CN2Cc3ccc(N4CCNCC4)nc3C2)O1 [Example 80, 5-[(2R,6S)-2-methyl-6-[(2-piperazin-1-yl-5,7-dihydropyrrolo[3,4-b]pyridin-6-yl)methyl]morpholin-4-yl]quinoline-8-carbonitrile] | 7
C[C@@H]1CN(c2ccc(C#N)n3ncc(F)c23)C[C@H](CN2CCc3cc(N4CCNCC4)ccc3C2)O1 [Example 14, 3-fluoro-4-[(2R,6S)-2-methyl-6-[(6-piperazin-1-yl-3,4-dihydro-1H-isoquinolin-2-yl)methyl]morpholin-4-yl]pyrazolo[1,5-a]pyridine-7-carbonitrile] | 21
C[C@@H]1CN(c2ccc(C#N)c3ncccc23)C[C@H](CN2Cc3ccc(N4CCNC[C@H]4CO)cc3C2)O1 [Example 83, 5-[(2S,6R)-2-[[5-[(2S)-2-(hydroxymethyl)piperazin-1-yl]isoindolin-2-yl]methyl]-6-methyl-morpholin-4-yl]quinoline-8-carbonitrile] | 34

Next, values leading:

IC50 [nM] | Compound
81 | C[C@@H]1CN(c2ccc(C#N)n3nccc23)C[C@H](CN2CCc3cc(N4CCNCC4)ccc3C2)O1 [Example 10, 4-[(2R,6S)-2-methyl-6-[(6-piperazin-1-yl-3,4-dihydro-1H-isoquinolin-2-yl)methyl]morpholin-4-yl]pyrazolo[1,5-a]pyridine-7-carbonitrile]
43 | C[C@@H]1CN(c2ccc(C#N)c3ncccc23)C[C@H](CN2Cc3cc(N4CCN(C)CC4)cc(F)c3C2)O1 [Example 69, 5-[(2S,6R)-2-[[4-fluoro-6-(4-methylpiperazin-1-yl)isoindolin-2-yl]methyl]-6-methyl-morpholin-4-yl]quinoline-8-carbonitrile]
80 | C[C@@H]1CN(c2ccc(C#N)c3ncccc23)C[C@H](CN2Cc3ccc(N4CC5(CCN5)C4)cc3C2)O1 [Example 55, 5-[(2S,6R)-2-[[5-(1,6-diazaspiro[3.3]heptan-6-yl)isoindolin-2-yl]methyl]-6-methyl-morpholin-4-yl]quinoline-8-carbonitrile]
56 | C[C@@H]1CN(c2ccc(C#N)n3nccc23)C[C@H](CN2Cc3ccc(N4CCNCC4)cc3C2)O1 [Example 4, 4-[(2R,6S)-2-methyl-6-[(5-piperazin-1-ylisoindolin-2-yl)methyl]morpholin-4-yl]pyrazolo[1,5-a]pyridine-7-carbonitrile]
9 | C[C@@H]1CN(c2ccc(Cl)c3nccnc23)C[C@H](CN2Cc3ccc(N4CCNCC4)cc3C2)O1 [Example 33, (2R,6S)-4-(8-chloroquinoxalin-5-yl)-2-methyl-6-[(5-piperazin-1-ylisoindolin-2-yl)methyl]morpholine]
39 | C[C@@H]1CN(c2ccc(Cl)c3ncccc23)C[C@H](CN2CCc3cc(N4CCNCC4)ccc3C2)O1 [Example 32, (2R,6S)-4-(8-chloro-5-quinolyl)-2-methyl-6-[(6-piperazin-1-yl-3,4-dihydro-1H-isoquinolin-2-yl)methyl]morpholine]
56 | COC(=O)C1CN(c2ccc3c(c2)CN(C[C@H]2CN(c4ccc(C#N)c5ncccc45)C[C@@H](C)O2)C3)CCN1 (stereo partly drawn) [Example 67, Methyl 4-[2-[[(2S,6R)-4-(8-cyano-5-quinolyl)-6-methyl-morpholin-2-yl]methyl]isoindolin-5-yl] piperazine-2-carboxylate]
33 | C[C@@H]1CN(c2ccc(C#N)c3nccnc23)C[C@H](CN2Cc3ccc(N4CCN5CCCCC5C4)cc3C2)O1 (stereo partly drawn) [Example 40, 8-[(2S,6R)-2-[[5-(1,3,4,6,7,8,9,9a-octahydropyrido[1,2-a]pyrazin-2-yl)isoindolin-2-yl]methyl]-6-methyl-morpholin-4-yl]quinoxaline-5-carbonitrile]
